Measurements reported in article PMC3243694, “Integrated Dataset of Screening Hits against Multiple Neglected Disease Pathogens” (PLoS Neglected Tropical Diseases, 2011).

Columns and labels:
[1] = system: Trypanosoma cruzi, Tulahuen CL2 strain; test: Antitrypanosomal activity assay, T. cruzi in MRC-5 cells; assay type: cell-based; conditions: T. cruzi Tulahuen CL2 in MRC-5 cells, 7 days
Method: (§1) The compound set was tested against the following parasites: intra-erythrocytic forms in human red blood cells of P. falciparum K1 strain (malaria), [16], [32], [33], [35], bloodstream forms of T. brucei Squib 427 strain (human African trypanosomiasis, HAT), [31], [32], [34], intracellular amastigotes of T. cruzi Tulahuen CL2, beta- galactosidase strain (Chagas' Disease), [32]–[35], intracellular amastigotes of L. infantum MHOM/MA(BE)/67 (leishmaniasis), [32]–[36], larval and/or adult worms of S. mansoni Puerto Rican strain (schistosomiasis), [31], [37], microfilariae of B. malayi (lymphatic filariasis), [30] and microfilariae of O. ochengi or O. lienalis (onchocerciasis), [30]. It should be noted that the human pathogen for onchocerciasis is Onchocerca volvulus, but due to lack of a suitable in vitro assay or animal models for this pathogen, O. ochengi and lienalis, which are both animal pathogens, are used in the primary and secondary assays, [30].
171 of the 744 actives passed the initial criterion of IC50<1 µg/ml for T. cruzi Tulahuen CL2, beta galactosidase strain maintained on MRC-5SV2 cells in MEM medium (MRC-5 cell/parasite inoculum: 4.10^3 cells/well+4.10^4 parasites/well), supplemented with […] L-glutamine, 16.5 mM NaHCO3 and 5% heat inactivated fetal calf serum. […] Of these, 109 were eliminated [structures #1–6] for poor selectivity versus mammalian cells (SI<50) and an additional 11 due to undesirable chemical attributes. The remaining 51 compounds were sorted into 10 series (45 compounds) and 6 singletons [structures # 21, 22]. Two of these series with excellent potency against T. cruzi, limited activity against other protozoa and SI values >50 (not shown), have been transferred to DNDi for further evaluation.

[2] = system: Plasmodium falciparum K1 strain; test: Anti-Plasmodium activity assay (Malstat); assay type: cell-based; conditions: P. falciparum K1, 72 h
Method: as §1

[3] = system: Brugia malayi adult worms; test: Anti-Brugia malayi adult worm motility assay; assay type: cell-based; conditions: B. malayi adult worms; 12.5 µM
Description: In some cases, particularly for the antifilarial screens, a second whole organism test with adult stage parasites is included prior to animal evaluation. The decision to utilize microfilariae for primary screening was based on throughput and biological considerations. It is difficult to acquire enough adult filariae to enable screening more than 1000 compounds per year, a rate far lower than needed for timely evaluation of the available compounds. In light of this situation, and considering that we are targeting molecules that are active on both stages, microfilariae screening was adopted as a suitable filter to identify compounds with potential macrofilaricidal activity. As result of logistics issues attributed to lost shipments of some compounds, only 6160 molecules of the 10,000 compound set were tested, at a uniform molarity, against B. malayi, including 6063 against microfilariae and 756 against adult worms (these sets overlap). […] Greatest priority was given to compounds with activity against adult worms, as no macrofilaricide is available for use in control campaigns and the activity of ivermectin as a microfilaricidal agent is unlikely to be bettered in a new series. […] These were titrated to determine an IC50 value to support prioritization. Following cytotoxicity triage [structures # 1, 4, 6], eight compounds met the activity criterion for adult worms (i.e., 100% inhibition of adult worm motility), four of which were also active against microfilariae [structures # 14, 29, 30, 32]. […] Of these, the most interesting was TDR76699 [structure # 29]; this compound has very good activity against adult worms (IC50 = 0.1 µg/ml) and is also active against microfilariae (IC50 = 0.7 µg/ml). None of the other compounds tested against adult parasites had IC50 values ≤0.5 µg/ml, a threshold which would reduce concerns about specificity. However, a few series [structures # 31, 33, 34], appear interesting for future medicinal chemistry projects.

[4] = system: Onchocerca (lienalis or ochengi) microfilariae; test: Anti-Onchocerca microfilariae motility assay; assay type: cell-based, Onchocerca lienalis or O. ochengi
Method: as §1
4240 compound s were screened against O. ochengi at the University of Buea in Cameroon, while a subset of […] compounds was successfully screened in UK by the Northwick Park Institute for Medical Research against O. lienalis, at a uniform molarity. […] After removing molecules that were toxic to mammalian cells (IC50<5 µg/ml), 292 molecules remained for further evaluation. […] From the latter sub-set, […] distinct chemical series and one singleton [structure # 35] were active against both microfilaria and adults. One series [structures # 2, 3] was deemed not interesting due to lack of selectivity against mammalian cells. The remaining series is being transferred to ANDI for further progression as part of a new collaboration.

[5] = system: Schistosoma mansoni adult worms; test: Anti-Schistosoma activity assay (adult worm motility); assay type: cell-based; conditions: S. mansoni adult worms; 12.5 µM (method: 10 µg/ml or 12.5 µM)
Method: as §1
A subset of 9478 of the 10,000 compound collection was tested against the Puerto Rican strain of S. mansoni. 6144 of these were tested in a primary larval assay followed by the ex-vivo adult secondary screen. The remainder was screened only in the adult assay. […] The 65 compounds were sorted by chemical attractiveness, potency against adult schistosomes in culture, selectivity against other parasites, and toxicity to mammalian cells in culture. Based on this analysis, 5 series encompassing 13 compounds were chosen for advancement through the African Network for Drug and Diagnostic Innovation (ANDI) and other PDPs. Representative structures [structures # 13, 27, 28] are shown (Table S1). These compounds are unburdened by obvious toxic moieties, have acceptable compliance with the Lipinski rules, are selectively active against schistosomes and are not overtly toxic to mammalian cells. It has unfortunately not been possible to titrate all of these hits in culture; of about 50% for which such data are available, none has an IC50<2 µg/ml (which is the initial potency criteria).

[6] = system: MRC-5 cell line (diploid human embryonic lung fibroblast); test: Cytotoxicity on MRC-5 cells; assay type: cell-based
Description: [table] An important part of the screen is the evaluation of all compounds for cytotoxicity using the diploid human embryonic lung fibroblast MRC-5 cell line (Figure 2). Further evaluation of cytotoxicity also takes advantage of the assays for intracellular protozoan parasites, as in the case of L. infantum and T. cruzi, which include murine peritoneal macrophage host cells and MRC-5SV2 human lung fibroblast cells, respectively, in the culture system.

[7] = system: Trypanosoma brucei brucei Squib-427 strain; test: Antitrypanosomal activity assay, T. brucei (resazurin); assay type: cell-based; conditions: T. brucei Squib 427 bloodstream forms, 72 h
Method: as §1

[8] = system: Brugia malayi microfilariae; test: Anti-Brugia malayi microfilariae motility assay; assay type: cell-based; conditions: B. malayi microfilariae; 12.5 µM
Method: as §1
As result of logistics issues attributed to lost shipments of some compounds, only 6160 molecules of the 10,000 compound set were tested, at a uniform molarity, against B. malayi, including 6063 against microfilariae and 756 against adult worms (these sets overlap). […] Greatest priority was given to compounds with activity against adult worms, as no macrofilaricide is available for use in control campaigns and the activity of ivermectin as a microfilaricidal agent is unlikely to be bettered in a new series. Of the test set, 53 compounds met the activity criterion for microfilariae (100% motility reduction) and an additional 58 inhibited adult worm motility ≥75% at 10 µM. These were titrated to determine an IC50 value to support prioritization. Following cytotoxicity triage [structures # 1, 4, 6], eight compounds met the activity criterion for adult worms (i.e., 100% inhibition of adult worm motility), four of which were also active against microfilariae [structures # 14, 29, 30, 32]. […] Of these, the most interesting was TDR76699 [structure # 29]; this compound has very good activity against adult worms (IC50 = 0.1 µg/ml) and is also active against microfilariae (IC50 = 0.7 µg/ml). None of the other compounds tested against adult parasites had IC50 values ≤0.5 µg/ml, a threshold which would reduce concerns about specificity. However, a few series [structures # 31, 33, 34], appear interesting for future medicinal chemistry projects.

## O=C(COc1cccc2c1CCN(Cc1ccccc1F)C2=O)N1CCC(Cc2ccccc2)CC1 [TDR77144]
[1]
  CHA IC50: 0.56 mg/L
[2]
  MAL IC50: 4.54 mg/L
[3]
  LF/AW % Motility Reduction at 12.5µM: 100%
[4]
  ONC/MF % Motility Reduction at 12.5µM: 0%
[5]
  SCH % Motility Reduction at 12.5µM: 0%
[6]
  CYT IC50: 4.56 mg/L
[7]
  HAT IC50: 0.47 mg/L
[8]
  LF/MF % Motility Reduction at 12.5µM: 100%

## O=C(Nc1nc2c(F)cc(F)cc2s1)c1nc2ccccc2s1 [TDR77323]
[1]
  CHA IC50: >10.42 mg/L
[2]
  MAL IC50: >10.42 mg/L
[3]
  LF/AW % Motility Reduction at 12.5µM: 50%
[5]
  SCH % Motility Reduction at 12.5µM: 0%
[6]
  CYT IC50: >10.42 mg/L
[8]
  LF/MF % Motility Reduction at 12.5µM: 100%

## COc1cccc2sc(Nc3nnc(-c4cccs4)o3)nc12 [TDR77585]
[1]
  CHA IC50: 0.31 mg/L
[2]
  MAL IC50: 1.25 mg/L
[3]
  LF/AW % Motility Reduction at 12.5µM: 50%
[5]
  SCH % Motility Reduction at 12.5µM: 0%
[6]
  CYT IC50: 1.83 mg/L
[7]
  HAT IC50: 0.35 mg/L
[8]
  LF/MF % Motility Reduction at 12.5µM: 100%

## CN(C)CCN(C(=O)c1cccc(N2C(=O)CCC2=O)c1)c1nc2ccc(Br)cc2s1 [TDR79337]
[1]
  CHA IC50: 4.94 mg/L
[2]
  MAL IC50: 1.45 mg/L
[3]
  LF/AW % Motility Reduction at 12.5µM: 0%
[4]
  ONC/MF % Motility Reduction at 12.5µM: 0%
[5]
  SCH % Motility Reduction at 12.5µM: 33%
[6]
  CYT IC50: >16.14 mg/L
[7]
  HAT IC50: 0.36 mg/L

## O=C(Nc1nc2c(s1)CSc1ccccc1-2)C1CCCN1S(=O)(=O)c1cccs1 (centres unmarked) [TDR83016]
[1]
  CHA IC50: 0.5 mg/L
[2]
  MAL IC50: 3.71 mg/L
[3]
  LF/AW % Motility Reduction at 12.5µM: 0%
[4]
  ONC/MF % Motility Reduction at 12.5µM: 100%
[5]
  SCH % Motility Reduction at 12.5µM: 100%
[6]
  CYT IC50: 1.88 mg/L
[7]
  HAT IC50: 0.45 mg/L
[8]
  LF/MF % Motility Reduction at 12.5µM: 100%

## O=C(c1ccccc1)N1CCN(c2ccc(Nc3ccccn3)nn2)CC1 [TDR86082]
[1]
  CHA IC50: >10.8 mg/L
[2]
  MAL IC50: >10.8 mg/L
[4]
  ONC/MF % Motility Reduction at 12.5µM: 0%
[5]
  SCH % Motility Reduction at 12.5µM: 0%
[6]
  CYT IC50: >10.8 mg/L
[7]
  HAT IC50: >10.8 mg/L
[8]
  LF/MF % Motility Reduction at 12.5µM: 0%

## O=S(=O)(c1cccc(F)c1)N1CCN(c2ccc(Nc3cccnc3)nn2)CC1 [TDR86129]
[1]
  CHA IC50: >12.43 mg/L
[2]
  MAL IC50: 5.44 mg/L
[4]
  ONC/MF % Motility Reduction at 12.5µM: 0%
[5]
  SCH % Motility Reduction at 12.5µM: 0%
[6]
  CYT IC50: 0.94 mg/L
[7]
  HAT IC50: >12.43 mg/L
[8]
  LF/MF % Motility Reduction at 12.5µM: 0%
